Assay results: patent US10689381B2 (priority 2017, dated 2020)
Read-outs that look alike come from different tables or passages of the source.

Columns and labels:
HCT116 = assay: cells; assay type: cell-based, human; conditions: for IC50: read-out: IC50 HCT116
Summary of the method: (§1)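 Compound exposure ran 72 h at six concentrations (0–1000 nM or 0–10000 nM, duplicate) on cells plated at 30,000 cells/mL in 10% FBS DMEM. A closing 37 °C incubation took 15 min (HCT116) or 5 min (L1210).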

L1210 = assay: cells; assay type: cell-based, mouse
Summary of the method: as §1

[1] = vinblastine-sensitive cell lines

| Structure (SMILES) | IC50 (HCT116; Table 4) | IC50 (L1210; Table 4) | IC50 (HCT116; Table 5) | IC50 (L1210; Table 5) | also measured |
| --- | --- | --- | --- | --- | --- |
| CCC1(NC(=O)c2ccc(C)c(NC(=O)c3ccccc3)c2)CC2CN(CCc3c([nH]c4ccccc34)C(C(=O)OC)(c3cc4c(cc3OC)N(C)C3C(O)(C(=O)OC)C(OC(C)=O)C5(CC)C=CCN6CCC43C65)C2)C1 (stereo not shown) [Compound 107] | – | – | – | – | IC50 (HCT116; Table 2): 7.6 nM; IC50 (L1210; Table 2): 30 nM |
| CCC1(NC(=O)C=Cc2ccccc2)CC2CN(CCc3c([nH]c4ccccc34)C(C(=O)OC)(c3cc4c(cc3OC)N(C)C3C(O)(C(=O)OC)C(OC(C)=O)C5(CC)C=CCN6CCC43C65)C2)C1 (stereo not shown) [Compound 108] | – | – | – | – | IC50 (HCT116; Table 3): 0.9 nM; IC50 (L1210; Table 3): 0.8 nM |
| CCC1(NC(=O)C=Cc2ccncc2)CC2CN(CCc3c([nH]c4ccccc34)C(C(=O)OC)(c3cc4c(cc3OC)N(C)C3C(O)(C(=O)OC)C(OC(C)=O)C5(CC)C=CCN6CCC43C65)C2)C1 (stereo not shown) [Compound 109] | – | – | – | – | IC50 (HCT116; Table 3): 0.7 nM; IC50 (L1210; Table 3): 0.6 nM |
| CCC1(NC(=O)C=Cc2cccnc2)CC2CN(CCc3c([nH]c4ccccc34)C(C(=O)OC)(c3cc4c(cc3OC)N(C)C3C(O)(C(=O)OC)C(OC(C)=O)C5(CC)C=CCN6CCC43C65)C2)C1 (stereo not shown) [Compound 110] | – | – | – | – | IC50 (HCT116; Table 3): 5.7 nM; IC50 (L1210; Table 3): 5.9 nM |
| CC[C@]1(NC(=O)/C=C/c2ccccn2)C[C@H]2CN(CCc3c([nH]c4ccccc34)[C@@](C(=O)OC)(c3cc4c(cc3OC)N(C)[C@H]3[C@@](O)(C(=O)OC)[C@H](OC(C)=O)[C@]5(CC)C=CCN6CC[C@]43[C@@H]65)C2)C1 [Compound 111] | – | – | – | – | IC50 (HCT116; Table 3): 0.7 nM; IC50 (L1210; Table 3): 0.7 nM |
| CC[C@]1(NC(=O)/C=C/c2ccoc2)C[C@H]2CN(CCc3c([nH]c4ccccc34)[C@@](C(=O)OC)(c3cc4c(cc3OC)N(C)[C@H]3[C@@](O)(C(=O)OC)[C@H](OC(C)=O)[C@]5(CC)C=CCN6CC[C@]43[C@@H]65)C2)C1 [Compound 112] | – | – | – | – | IC50 (HCT116; Table 3): 0.7 nM; IC50 (L1210; Table 3): 0.7 nM |
| CC[C@]1(NC(=O)/C=C/c2ccco2)C[C@H]2CN(CCc3c([nH]c4ccccc34)[C@@](C(=O)OC)(c3cc4c(cc3OC)N(C)[C@H]3[C@@](O)(C(=O)OC)[C@H](OC(C)=O)[C@]5(CC)C=CCN6CC[C@]43[C@@H]65)C2)C1 [Compound 113] | – | – | – | – | IC50 (HCT116; Table 3): 1.3 nM; IC50 (L1210; Table 3): 1.3 nM |
| CC[C@]1(NC(=O)/C=C/c2ccsc2)C[C@H]2CN(CCc3c([nH]c4ccccc34)[C@@](C(=O)OC)(c3cc4c(cc3OC)N(C)[C@H]3[C@@](O)(C(=O)OC)[C@H](OC(C)=O)[C@]5(CC)C=CCN6CC[C@]43[C@@H]65)C2)C1 [Compound 114] | – | – | – | – | IC50 (HCT116; Table 3): 0.6 nM; IC50 (L1210; Table 3): 0.5 nM |
| CCC1(NC(=O)c2cccc3ccccc23)CC2CN(CCc3c([nH]c4ccccc34)C(C(=O)OC)(c3cc4c(cc3OC)N(C)C3C(O)(C(=O)OC)C(OC(C)=O)C5(CC)C=CCN6CCC43C65)C2)C1 (stereo not shown) [Compound 115] | 65 nM | 60 nM | – | – | potency relative to vinblastine (less potent / reduced activity) (HCT116; [1]): roughly 10 fold |
| CCC1(NC(=O)c2ccc3ccccc3c2)CC2CN(CCc3c([nH]c4ccccc34)C(C(=O)OC)(c3cc4c(cc3OC)N(C)C3C(O)(C(=O)OC)C(OC(C)=O)C5(CC)C=CCN6CCC43C65)C2)C1 (stereo not shown) [Compound 116] | 2.3 nM | 1.9 nM | – | – | potency relative to vinblastine (more potent) (HCT116; [1]): approximately 3 fold |
| CCC1(NC(=O)c2ccc3cc(N)ccc3c2)CC2CN(CCc3c([nH]c4ccccc34)C(C(=O)OC)(c3cc4c(cc3OC)N(C)C3C(O)(C(=O)OC)C(OC(C)=O)C5(CC)C=CCN6CCC43C65)C2)C1 (stereo not shown) [Compound 117] | 0.8 nM | 0.7 nM | – | – | – |
| CCC1(NC(=O)c2ccc3cc(NC(=O)OC(C)(C)C)ccc3c2)CC2CN(CCc3c([nH]c4ccccc34)C(C(=O)OC)(c3cc4c(cc3OC)N(C)C3C(O)(C(=O)OC)C(OC(C)=O)C5(CC)C=CCN6CCC43C65)C2)C1 (stereo not shown) [Compound 118] | 6.5 nM | 5 nM | – | – | – |
| CCC1(NC(=O)c2ccc3cc(OC)ccc3c2)CC2CN(CCc3c([nH]c4ccccc34)C(C(=O)OC)(c3cc4c(cc3OC)N(C)C3C(O)(C(=O)OC)C(OC(C)=O)C5(CC)C=CCN6CCC43C65)C2)C1 (stereo not shown) [Compound 119] | 3.5 nM | 2.5 nM | – | – | – |
| CCC1(NC(=O)c2ccc3cccc(OC)c3c2)CC2CN(CCc3c([nH]c4ccccc34)C(C(=O)OC)(c3cc4c(cc3OC)N(C)C3C(O)(C(=O)OC)C(OC(C)=O)C5(CC)C=CCN6CCC43C65)C2)C1 (stereo not shown) [Compound 120] | 13 nM | 10 nM | – | – | – |
| CCC1(NC(=O)c2ccc3c(c2)C(C)(C)CCC3(C)C)CC2CN(CCc3c([nH]c4ccccc34)C(C(=O)OC)(c3cc4c(cc3OC)N(C)C3C(O)(C(=O)OC)C(OC(C)=O)C5(CC)C=CCN6CCC43C65)C2)C1 (stereo not shown) [Compound 123] | 7.8 nM | 7.4 nM | – | – | – |
| CCC1(NC(=O)c2ccc3c(c2)CCC3)CC2CN(CCc3c([nH]c4ccccc34)C(C(=O)OC)(c3cc4c(cc3OC)N(C)C3C(O)(C(=O)OC)C(OC(C)=O)C5(CC)C=CCN6CCC43C65)C2)C1 (stereo not shown) [Compound 124] | 5.6 nM | 5 nM | – | – | potency relative to vinblastine (more potent) (HCT116; [1]): about 2 fold |
| CCC1(NC(=O)C2Cc3ccccc3C2)CC2CN(CCc3c([nH]c4ccccc34)C(C(=O)OC)(c3cc4c(cc3OC)N(C)C3C(O)(C(=O)OC)C(OC(C)=O)C5(CC)C=CCN6CCC43C65)C2)C1 (stereo not shown) [Compound 125] | 15 nM | 30 nM | – | – | – |

| Structure (SMILES) | IC50 (HCT116; Table 4) | IC50 (L1210; Table 4) | IC50 (HCT116; Table 5) | IC50 (L1210; Table 5) | also measured |
| --- | --- | --- | --- | --- | --- |
| CCC1(NC(=O)c2ccc3c(c2)CCCCC3)CC2CN(CCc3c([nH]c4ccccc34)C(C(=O)OC)(c3cc4c(cc3OC)N(C)C3C(O)(C(=O)OC)C(OC(C)=O)C5(CC)C=CCN6CCC43C65)C2)C1 (stereo not shown) [Compound 126] | 4.8 nM | 6.1 nM | – | – | – |
| CC[C@]1(NC(=O)c2ccc3cc4ccccc4cc3c2)C[C@H]2CN(CCc3c([nH]c4ccccc34)[C@@](C(=O)OC)(c3cc4c(cc3OC)N(C)[C@H]3[C@@](O)(C(=O)OC)[C@H](OC(C)=O)[C@]5(CC)C=CCN6CC[C@]43[C@@H]65)C2)C1 [Compound 127] | 60 nM | 40 nM | – | – | – |
| CCC1(NC(=O)c2ccncc2)CC2CN(CCc3c([nH]c4ccccc34)C(C(=O)OC)(c3cc4c(cc3OC)N(C)C3C(O)(C(=O)OC)C(OC(C)=O)C5(CC)C=CCN6CCC43C65)C2)C1 (stereo not shown) [Compound 128] | – | – | 0.4 nM | 0.4 nM | – |
| CCC1(NC(=O)c2cccnc2)CC2CN(CCc3c([nH]c4ccccc34)C(C(=O)OC)(c3cc4c(cc3OC)N(C)C3C(O)(C(=O)OC)C(OC(C)=O)C5(CC)C=CCN6CCC43C65)C2)C1 (stereo not shown) [Compound 129] | – | – | 0.6 nM | 0.7 nM | – |
| CCC1(NC(=O)c2ccccn2)CC2CN(CCc3c([nH]c4ccccc34)C(C(=O)OC)(c3cc4c(cc3OC)N(C)C3C(O)(C(=O)OC)C(OC(C)=O)C5(CC)C=CCN6CCC43C65)C2)C1 (stereo not shown) [Compound 130] | – | – | 50 nM | 55 nM | – |
| CC[C@]1(NC(=O)c2cnccn2)C[C@H]2CN(CCc3c([nH]c4ccccc34)[C@@](C(=O)OC)(c3cc4c(cc3OC)N(C)[C@H]3[C@@](O)(C(=O)OC)[C@H](OC(C)=O)[C@]5(CC)C=CCN6CC[C@]43[C@@H]65)C2)C1 [Compound 131] | – | – | 20 nM | 40 nM | – |
| CC[C@]1(NC(=O)c2ccnnc2)C[C@H]2CN(CCc3c([nH]c4ccccc34)[C@@](C(=O)OC)(c3cc4c(cc3OC)N(C)[C@H]3[C@@](O)(C(=O)OC)[C@H](OC(C)=O)[C@]5(CC)C=CCN6CC[C@]43[C@@H]65)C2)C1 [Compound 132] | – | – | 9 nM | 30 nM | – |
| CC[C@]1(NC(=O)c2ccoc2)C[C@H]2CN(CCc3c([nH]c4ccccc34)[C@@](C(=O)OC)(c3cc4c(cc3OC)N(C)[C@H]3[C@@](O)(C(=O)OC)[C@H](OC(C)=O)[C@]5(CC)C=CCN6CC[C@]43[C@@H]65)C2)C1 [Compound 133] | – | – | 0.6 nM | 0.7 nM | activity relative to 20′ benzamide Compound 24 (better) (HCT116): roughly 2 fold; potency relative to vinblastine (more potent) (HCT116; [1]): 10 fold |
| CCC1(NC(=O)c2ccco2)CC2CN(CCc3c([nH]c4ccccc34)C(C(=O)OC)(c3cc4c(cc3OC)N(C)C3C(O)(C(=O)OC)C(OC(C)=O)C5(CC)C=CCN6CCC43C65)C2)C1 (stereo not shown) [Compound 134] | – | – | 0.7 nM | 0.7 nM | – |
| CCC1(NC(=O)c2ccsc2)CC2CN(CCc3c([nH]c4ccccc34)C(C(=O)OC)(c3cc4c(cc3OC)N(C)C3C(O)(C(=O)OC)C(OC(C)=O)C5(CC)C=CCN6CCC43C65)C2)C1 (stereo not shown) [Compound 135] | – | – | 0.7 nM | 0.5 nM | – |
| CCC1(NC(=O)c2cccs2)CC2CN(CCc3c([nH]c4ccccc34)C(C(=O)OC)(c3cc4c(cc3OC)N(C)C3C(O)(C(=O)OC)C(OC(C)=O)C5(CC)C=CCN6CCC43C65)C2)C1 (stereo not shown) [Compound 136] | – | – | 0.6 nM | 0.6 nM | activity relative to 20′ benzamide Compound 24 (better) (HCT116): roughly 2 fold; potency relative to vinblastine (more potent) (HCT116; [1]): 10 fold |
| CC[C@]1(NC(=O)c2cocn2)C[C@H]2CN(CCc3c([nH]c4ccccc34)[C@@](C(=O)OC)(c3cc4c(cc3OC)N(C)[C@H]3[C@@](O)(C(=O)OC)[C@H](OC(C)=O)[C@]5(CC)C=CCN6CC[C@]43[C@@H]65)C2)C1 [Compound 137] | – | – | 4 nM | 4.5 nM | – |
| CC[C@]1(NC(=O)c2cnco2)C[C@H]2CN(CCc3c([nH]c4ccccc34)[C@@](C(=O)OC)(c3cc4c(cc3OC)N(C)[C@H]3[C@@](O)(C(=O)OC)[C@H](OC(C)=O)[C@]5(CC)C=CCN6CC[C@]43[C@@H]65)C2)C1 [Compound 138] | – | – | 3.5 nM | 3.9 nM | – |
| CC[C@]1(NC(=O)c2cscn2)C[C@H]2CN(CCc3c([nH]c4ccccc34)[C@@](C(=O)OC)(c3cc4c(cc3OC)N(C)[C@H]3[C@@](O)(C(=O)OC)[C@H](OC(C)=O)[C@]5(CC)C=CCN6CC[C@]43[C@@H]65)C2)C1 [Compound 139] | – | – | 6.3 nM | 5.6 nM | – |
| CCC1(NC(=O)c2cncs2)CC2CN(CCc3c([nH]c4ccccc34)C(C(=O)OC)(c3cc4c(cc3OC)N(C)C3C(O)(C(=O)OC)C(OC(C)=O)C5(CC)C=CCN6CCC43C65)C2)C1 (stereo not shown) [Compound 140] | – | – | 0.6 nM | 1.8 nM | – |
| CCC1(NC(=O)c2cncn2C)CC2CN(CCc3c([nH]c4ccccc34)C(C(=O)OC)(c3cc4c(cc3OC)N(C)C3C(O)(C(=O)OC)C(OC(C)=O)C5(CC)C=CCN6CCC43C65)C2)C1 (stereo not shown) [Compound 141] | – | – | 2.2 nM | 4 nM | – |
